Measurements published in the NIST ThermoML archive (doi:10.1016/j.fluid.2009.03.002).

Columns and labels:
[1] = wn = mass fraction of the nth substance listed; conditions: 101 kPa, Liquid; for viscosity: Capillary tube (Ostwald / Ubbelohde) method; for mass density: Pycnometric method
[2] = relative permittivity at zero frequency (dimensionless); wn = mass fraction of the nth substance listed; conditions: 101 kPa, Liquid, Parallel plate capacitor
[3] = cn = amount concentration of the nth substance listed, in mol/dm3; conditions: 101 kPa, Liquid, Direct current cell with electrodes

OCCO [1,2-ethanediol] + CO
Conditions | mass density, 293.15 K [kg/m3] | mass density, 298.15 K [kg/m3] | mass density, 303.15 K [kg/m3] | relative permittivity at zero frequency, 293.15 K | relative permittivity at zero frequency, 298.15 K | relative permittivity at zero frequency, 303.15 K | viscosity, 293.15 K [mPa·s] | viscosity, 298.15 K [mPa·s] | viscosity, 303.15 K [mPa·s]
[1], w1 = 0.25 | 864.7 | 860.9 | 858.6 | – | – | – | 1.127 | 1.03 | 0.9454
[1], w1 = 0.5 | 938.3 | 933.8 | 932.1 | – | – | – | 2.269 | 2.045 | 1.81
[1], w1 = 0.75 | 1023.4 | 1019.6 | 1017.3 | – | – | – | 5.8 | 4.904 | 4.232
[2], w1 = 0.25 | – | – | – | 35.2 | 34.7 | 33.7 | – | – | –
[2], w1 = 0.5 | – | – | – | 37.3 | 36.7 | 35.6 | – | – | –
[2], w1 = 0.75 | – | – | – | 39.3 | 38.7 | 37.4 | – | – | –

CO [methanol] + OCCO
w2 = 0
Conditions | mass density, 293.15 K [kg/m3] | mass density, 298.15 K [kg/m3] | mass density, 303.15 K [kg/m3] | relative permittivity at zero frequency, 293.15 K | relative permittivity at zero frequency, 298.15 K | relative permittivity at zero frequency, 303.15 K | viscosity, 293.15 K [mPa·s] | viscosity, 298.15 K [mPa·s] | viscosity, 303.15 K [mPa·s]
[1] | 791 | 785.9 | 781.4 | – | – | – | 0.5814 | 0.5436 | 0.5112
[2] | – | – | – | 33.1 | 32.7 | 31.9 | – | – | –

CC(=O)[O-].[Na+] [sodium ethanoate] + CO
molar conductivity [S·m2/mol], [3]
Conditions | 293.15 K | 298.15 K | 303.15 K
c1 = 0.0007037 | 0.007613 | 0.00835 | 0.00893
c1 = 0.00101 | 0.007497 | 0.00824 | 0.00857
c1 = 0.00129 | – | 0.008107 | –
c1 = 0.001548 | 0.007306 | – | 0.00804
c1 = 0.001786 | 0.007275 | 0.007949 | 0.00786
c1 = 0.002007 | – | 0.007893 | 0.0078
c1 = 0.002402 | 0.007159 | 0.007788 | 0.00754
c1 = 0.00258 | 0.007131 | 0.007732 | 0.0074
c1 = 0.003188 | 0.006994 | 0.007579 | 0.00714
c1 = 0.003441 | 0.006947 | 0.007529 | 0.00696
c1 = 0.003667 | 0.006913 | 0.007475 | 0.00692
c1 = 0.004222 | 0.006825 | 0.007371 | 0.0068
c1 = 0.004764 | 0.006759 | 0.007263 | –
c1 = 0.004874 | – | – | 0.00643
c1 = 0.004976 | 0.006732 | 0.007194 | –
c1 = 0.005072 | – | – | 0.00634
c1 = 0.005529 | – | 0.007125 | –
c1 = 0.005591 | 0.006636 | – | –
c1 = 0.005649 | – | – | 0.0062
c1 = 0.005756 | 0.006636 | – | –
c1 = 0.005898 | – | 0.007044 | –
c1 = 0.005982 | – | – | 0.00612
c1 = 0.006002 | – | 0.00701 | –
c1 = 0.006253 | 0.006557 | – | –
c1 = 0.006281 | – | – | 0.00612
c1 = 0.006493 | 0.00653 | – | –

[I-].[Na+] [sodium iodide] + CO
molar conductivity [S·m2/mol], [3]
Conditions | 293.15 K | 298.15 K | 303.15 K
c1 = 0.0007005 | 0.008344 | 0.008814 | 0.0098
c1 = 0.001005 | 0.008236 | 0.008686 | 0.00954
c1 = 0.001541 | 0.00804 | 0.008464 | 0.009246
c1 = 0.001778 | 0.007969 | 0.008407 | 0.009148
c1 = 0.001998 | – | 0.008329 | –
c1 = 0.002202 | – | – | 0.009014
c1 = 0.002391 | 0.00784 | 0.00825 | 0.00896
c1 = 0.002569 | 0.007786 | 0.008171 | 0.008907
c1 = 0.003036 | 0.007688 | – | –
c1 = 0.003173 | – | 0.008019 | 0.00852
c1 = 0.003425 | – | 0.007956 | 0.00846
c1 = 0.003541 | 0.0076 | – | –
c1 = 0.00365 | – | 0.007907 | 0.0084
c1 = 0.003754 | 0.007556 | – | –
c1 = 0.004122 | 0.0075 | – | –
c1 = 0.004203 | – | 0.007791 | 0.00825
c1 = 0.004684 | 0.007431 | – | –
c1 = 0.004742 | – | 0.007697 | –
c1 = 0.004852 | – | – | 0.00804
c1 = 0.004954 | – | 0.007663 | –
c1 = 0.005049 | – | – | 0.008
c1 = 0.005094 | 0.007356 | – | –
c1 = 0.005504 | – | 0.007571 | –
c1 = 0.005623 | – | – | 0.00782
c1 = 0.005651 | 0.007288 | – | –
c1 = 0.006031 | – | 0.007494 | –
c1 = 0.00618 | 0.007194 | – | –
c1 = 0.006252 | – | – | 0.0076
c1 = 0.006529 | 0.00715 | – | –

N#C[S-].[Na+] [sodium thiocyanate] + CO
molar conductivity [S·m2/mol], [3]
Conditions | 293.15 K | 298.15 K | 303.15 K
c1 = 0.0006986 | 0.00956 | 0.01035 | 0.01085
c1 = 0.001002 | 0.009407 | 0.010245 | –
c1 = 0.001281 | – | – | 0.0106
c1 = 0.001537 | 0.009271 | 0.0101 | 0.010507
c1 = 0.001773 | 0.009192 | 0.010014 | 0.01045
c1 = 0.002195 | – | 0.009936 | 0.010314
c1 = 0.002385 | 0.008993 | 0.009871 | 0.010271
c1 = 0.002561 | 0.00895 | 0.009821 | 0.010214
c1 = 0.003164 | 0.008836 | 0.009707 | 0.01008
c1 = 0.003415 | 0.008784 | 0.009675 | 0.010014
c1 = 0.00364 | – | 0.009616 | 0.009979
c1 = 0.003842 | 0.00872 | – | –
c1 = 0.004191 | 0.008664 | 0.009507 | 0.009864
c1 = 0.004343 | 0.00868 | – | –
c1 = 0.004729 | – | 0.009414 | –
c1 = 0.004838 | 0.008578 | – | 0.009735
c1 = 0.005035 | 0.008541 | – | 0.009713
c1 = 0.005489 | – | 0.009293 | –
c1 = 0.005607 | – | – | 0.0096
c1 = 0.005662 | 0.008477 | – | –
c1 = 0.005855 | – | 0.00925 | –
c1 = 0.006014 | – | 0.009229 | –
c1 = 0.006261 | – | – | 0.009493
c1 = 0.006336 | 0.008396 | – | –
